The target in assay [1] is Somatostatin receptor type 2 (Homo sapiens, UniProt P30874).
Assay [2] addresses Somatostatin receptor type 5 (Homo sapiens, UniProt P35346).

The text below walks through data of BindingDB's records for doi:10.1016/s0014-2999(98)00159-9 (Novartis Pharma, 1998).

pKi: −log10 of the molar value. Where “and” joins values, the source holds several entries; their conditions need not be identical. Identical values can stand only once. Where a SMILES comes first, the peptide text is derived from it. Bridges are numbered along the chain shown (N, C = ends). [ ]: non-standard residue; d: D form. The star is where a group is joined. d1Nal = N[C@H](Cc1cccc2ccccc12)C(=O)O; Ahp = NCCCCCCC(=O)O; Bn = c1ccc(C*)cc1

Somatostatin receptor type 2, sequence (P30874 whole entry): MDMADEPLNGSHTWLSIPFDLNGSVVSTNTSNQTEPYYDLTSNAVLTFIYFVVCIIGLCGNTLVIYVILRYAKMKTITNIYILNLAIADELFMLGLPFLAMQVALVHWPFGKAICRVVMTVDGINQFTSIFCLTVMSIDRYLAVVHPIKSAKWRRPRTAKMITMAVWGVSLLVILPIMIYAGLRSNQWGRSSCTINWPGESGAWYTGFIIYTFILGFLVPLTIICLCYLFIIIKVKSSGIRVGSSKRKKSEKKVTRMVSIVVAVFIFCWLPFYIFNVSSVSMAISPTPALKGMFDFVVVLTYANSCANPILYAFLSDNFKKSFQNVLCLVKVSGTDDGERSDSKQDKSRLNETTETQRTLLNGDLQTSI
Somatostatin receptor type 5, sequence (P35346 whole entry): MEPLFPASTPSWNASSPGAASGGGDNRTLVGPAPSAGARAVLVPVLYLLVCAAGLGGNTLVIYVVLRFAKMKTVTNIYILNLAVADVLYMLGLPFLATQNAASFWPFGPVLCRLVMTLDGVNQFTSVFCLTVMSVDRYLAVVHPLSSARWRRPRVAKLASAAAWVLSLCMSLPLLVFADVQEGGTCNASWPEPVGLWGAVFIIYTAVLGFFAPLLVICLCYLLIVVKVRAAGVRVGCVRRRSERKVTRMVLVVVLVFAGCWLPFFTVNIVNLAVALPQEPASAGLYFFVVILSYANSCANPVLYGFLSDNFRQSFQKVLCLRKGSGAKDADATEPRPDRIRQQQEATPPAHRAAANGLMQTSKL

In the case of `C[C@@H](O)[C@H](NC(=O)[C@H](Cc1ccccc1)NC(=O)[C@@H](NC(=O)[C@H](CCCCN)NC(=O)[C@@H](Cc1c[nH]c2ccccc12)NC(=O)[C@H](Cc1ccccc1)NC(=O)[C@H](Cc1ccccc1)NC(=O)[C@H](N)Cc1ccccc1)[C@@H](C)O)C(N)=O` [CAS_133073-82-2] (H-[dF]FF[dW]KTFT-NH2), the pKi in assay [1] was 8.76 and 8.30 and 7.78 and 8.55 and 8.73.

Take `C[C@@H](O)[C@@H]1NC(=O)[C@H](CCCCN)NC(=O)[C@H](Cc2c[nH]c3ccccc23)NC(=O)[C@H](Cc2ccccc2)NC(=O)[C@H](Cc2ccccc2)NC(=O)[C@H](CC(N)=O)NC(=O)[C@H](CCCCN)NC(=O)[C@@H](NC(=O)[C@@H]2CCCN2)CSSC[C@@H](C(=O)N[C@@H](CCCCN)C(=O)O)NC(=O)[C@H](CO)NC(=O)[C@H](CO)NC(=O)[C@H](Cc2ccccc2)NC1=O` [CORTISTATIN-14] (H-PCKNFFWKTFSSCK-OH; disulfide 2-13): the pKi was 9.24 and 8.71 and 9.35 in assay [2]; 9.04 and 8.75 and 8.35 in assay [1].

Regarding `C[C@@H](O)[C@@H]1NC(=O)[C@H](CCCCN)NC(=O)[C@@H](Cc2c[nH]c3ccccc23)NC(=O)[C@H](Cc2c[nH]c3ccccc23)NC(=O)[C@H](Cc2ccccc2)NC(=O)CCCCCCNC(=O)[C@H](Cc2ccccc2)NC1=O` [L-362855] (cyclo([Ahp]FW[dW]KTF)), the pKi in assay [1] was 8.69 and 8.36 and 8.79.

Consider `CC(C)[C@@H]1NC(=O)[C@H](CCCCN)NC(=O)[C@@H](Cc2c[nH]c3ccccc23)NC(=O)[C@H](Cc2ccc(O)cc2)NC(=O)[C@@H](NC(=O)[C@H](N)Cc2ccc3ccccc3c2)CSSC[C@@H](C(=O)N[C@H](C(N)=O)[C@@H](C)O)NC1=O` [3-(2-Naphtyl)-D-Ala-L-Cys(1)-L-Tyr-D-Trp-L-Lys-L-Val-L-Cys(1)-L-Thr-NH2], for which, in assay [1], the pKi was 9.28 and 8.86 and 9.55 and 9.68.

For `C[C@@H](OCc1ccccc1)[C@@H]1NC(=O)[C@H](CCCCN)NC(=O)[C@@H](Cc2c[nH]c3ccccc23)NC(=O)[C@H](Cc2ccccc2)NC(=O)CCCCCCNC1=O` [c[Aha-Phe-D-Trp-Lys-Thr(Bzl)]] (cyclo([Ahp]F[dW]KT(Bn))), the pKi in assay [1] is 5.80 and 5.40 and 5.43 and 5.77 and 5.90.

For `CC(C)[C@H](NC(=O)[C@H](CCCCN)NC(=O)[C@@H](Cc1c[nH]c2ccccc12)NC(=O)[C@H](Cc1ccc(O)cc1)NC(=O)[C@H](Cc1ccccc1)NC(=O)[C@H](N)Cc1ccccc1)C(=O)N[C@@H](Cc1ccccc1)C(=O)N[C@H](Cc1cccc2ccccc12)C(N)=O` [BIM 23056] (H-[dF]FY[dW]KVF[d1Nal]-NH2), the pKi in assay [1] is 6.33 and 6.14 and 6.38 and 6.65.

As for `C[C@@H](O)[C@@H]1NC(=O)[C@H](CCCCN)NC(=O)[C@@H](Cc2c[nH]c3ccccc23)NC(=O)[C@H](Cc2ccccc2)NC(=O)[C@@H]2CCCN2C(=O)[C@H](Cc2ccccc2)NC1=O` (cyclo(PF[dW]KTF)), in assay [1], the pKi was 8.28 and 8.39 and 8.32 and 9.28.

By pKi is commonly meant the negative decadic logarithm of the Ki, by convention in mol/L.
